Counter-ions that a name gives are not always drawn.
What was measured:
[1] = system: Panc-1 cells; test: CellTiter-Glo Luminescent Cell Viability Assay, Panc-1 as PDAC model; assay type: cell-based, human; details: for IC50: Panc-1 cells, 72 h compound incubation, mean ± SD of at least three independent biological repeats; for activity against human Panc-1 pancreatic carcinoma cells compared to gemcitabine: comparison with gemcitabine
Description: The biological antitumor-activity of adenosine derivatives according to Formula I towards pancreatic ductal adenocarcinoma (PDAC) was evaluated by utilizing the established cell line Panc-1 as a PDAC model by applying the CellTiter-Glo® Luminescent Cell Viability Assay (Promega) after 72 h of compound incubation. Gemcitabine (100 µM) was used as a positive control. To analyze the cytotoxic efficacy in Panc-1 cells, dose-response curves were generated for each compound, starting from a concentration of 100 µM with serial dilution of 1:3. IC50 values are shown as arithmetic means of at least three independent biological repeats in following Table 1. Table 1: IC50-Values for the inhibition of PADC by adenosine and 1,N6-ethenoadenosine derivatives (with the respective standard deviations SD)

[2] = logPOW determination, water/1-octanol distribution with UV/VIS readout; assay type: physicochemical; details: 1 h stirring, room temperature (23 °C), ratio of maximal UV absorbances; for logP at 1 h: read-out: logPOW (measured)
Description: All logPOW values reported herein are determined as follows: 2 mg of the compound to be measured are distributed in a 250 ml beaker between a two-phase mixture of water (50 ml) and 1-octanol (50 ml) and stirred for 1 h on a magnetic stirrer at room temperature (23 °C). After separation of the layers, 3 ml of each phase are removed and transferred into a 3.5 ml quartz cuvette (10 x 10 mm, 3500 µl; Hellma, Darmstadt, Germany) and measured on a UV/VIS spectrometer (Cary 50, Varian, Darmstadt, Germany). From the ratio of maximal absorbances in both layers (λmax) the corresponding log10POW values are determined.

| IC50 ([1]; Homo sapiens) | logPOW (measured) [2] | logP at 1 h [2] | SMILES | activity against human Panc-1 pancreatic carcinoma cells compared to gemcitabine [1] | IC50 [1] |
| --- | --- | --- | --- | --- | --- |
| 16.2 ± 1.35 µM | 2.57 | 2.57 | CCCCCCCCC1(CCCCCCCC)O[C@@H]2[C@H](O1)[C@@H](CO)O[C@H]2n1cnc2c1ncn1ccnc21 [Compound 4b, ((3aR,4R,6R,6aR)-6-(3H-imidazo[2,1-i]purin-3-yl)-2,2-dioctyitetrahydrofuro[3,4-d][1,3]dioxol-4-yl)methanol Hydrochloride] | more active | – |
| – | 3.86 | 3.86 | CCCCCCCCC1(CCCCCCCC)O[C@@H]2[C@H](O1)[C@@H](CO)O[C@H]2n1cnc2c(N)ncnc21 [Compound 2b, ((3aR,4R,6R,6aR)-6-(6-amino-9H-purin-9-yl)-2,2-dioctyltetrahydrofuro[3,4-d][1,3]dioxol-4-yl)methanol] | – | – |
| 23.1 ± 3.6 µM | 1.67 | 1.67 | Cl.OC[C@H]1O[C@@H](n2cnc3c2ncn2ccnc32)[C@@H]2OC3(CCCCCCCCCCCCCC3)O[C@@H]21 [Compound 5, ((3a'R,4'R,6'R,6a'R)-4'-(3H-imidazo[2,1-i]purin-3-yl)tetrahydrospiro[cyclopentadecane-1,2'-furo[3,4-d][1,3]dioxol]-6'-yl)methanol Hydrochloride] | – | – |
| 17.1 ± 3.14 µM | 2.40 | 2.4 | CCCCCCCC1(CCCCCCC)O[C@@H]2[C@H](O1)[C@@H](CO)O[C@H]2n1cnc2c1ncn1ccnc21.Cl [Compound 4a, ((3aR,4R,6R,6aR)-6-(3H-imidazo[2,1-i]purin-3-yl)-2,2-diheptyltetrahydrofuro[3,4-d][1,3]dioxol-4-yl)methanol Hydrochloride] | – | – |
| 14.58 ± 0.14 µM | 2.82 | 2.82 | CCCCCCCC1(CCCCCCC)O[C@@H]2[C@H](O1)[C@@H](CO)O[C@H]2n1cnc2c(N)ncnc21 [Compound 2a, ((3aR,4R,6R,6aR)-6-(6-amino-9H-purin-9-yl)-2,2-diheptyltetrahydrofuro[3,4-d][1,3]dioxol-4-yl)methanol] | more active | – |

| SMILES | IC50 ([1]; Homo sapiens) | logPOW (measured) [2] | logP at 1 h [2] | activity against human Panc-1 pancreatic carcinoma cells compared to gemcitabine [1] | IC50 [1] |
| --- | --- | --- | --- | --- | --- |
| CCCCCCCCCCCCCC1(C)O[C@@H]2[C@H](O1)[C@@H](CO)O[C@H]2n1cnc2c(N)ncnc21 (stereo partly drawn) [Compound 2c, ((2R/2S,3aR,4R,6R,6aR)-6-(6-amino-9H-purin-9-yl)-2-methyl-2-tridecyltetrahydrofuro[3,4-d][1,3]dioxol-4-yl)methanol] | – | 2.83 | – | – | – |
| CCCCCCCCCCCCCC1(CC)O[C@@H]2[C@H](O1)[C@@H](CO)O[C@H]2n1cnc2c(N)ncnc21 (stereo partly drawn) [Compound 2d, ((2R/2S,3aR,4R,6R,6aR)-6-(6-amino-9H-purin-9-yl)-2-ethyl-2-tridecyltetrahydrofuro[3,4-d][1,3]dioxol-4-yl)methanol] | – | 3.60 | – | more active | 14.6 ± 0.69 µM |
| CCCCCCCCCCCCCC1(C)O[C@@H]2[C@H](O1)[C@@H](CO)O[C@H]2n1cnc2c(N)ncnc21.Cl (stereo partly drawn) [Compound 4c, ((2R/2S,3aR,4R,6R,6aR)-6-(6-amino-9H-purin-9-yl)-2-methyl-2-tridecyltetrahydrofuro[3,4-d][1,3]dioxol-4-yl)methanol Hydrochloride] | – | 2.75 | – | more active | 30.6 ± 2.53 µM |
| CCCCCCCCCCCCCC1(CC)O[C@@H]2[C@H](O1)[C@@H](CO)O[C@H]2n1cnc2c1ncn1ccnc21.Cl (stereo partly drawn) [Compound 4d, ((2R/2S,3aR,4R,6R,6aR)-6-(3H-imidazo[2,1-i]purin-3-yl)-2-ethyl-2-tridecyltetrahydrofuro[3,4-d][1,3]dioxol-4-yl)methanol Hydrochloride] | – | 2.29 | – | – | 16 ± 4.31 µM |

Reference: patent EP4342905B1, “1,N6-ETHENOADENOSINE DERIVATIVES FOR CANCER TREATMENT” (PHILIPPS-UNIVERSITÄT MARBURG, priority 2022, dated 2024)
